Data on 14 compounds can be found in ChEMBL document CHEMBL4033632, “Design, synthesis and biological activity of novel donepezil derivatives bearing N-benzyl pyridinium moiety as potent and dual binding site acetylcholinesterase inhibitors” (Eur J Med Chem, 2017).

The target in data set [1] is Amyloid-beta precursor protein (Homo sapiens) (UniProt P05067). Briefly: Inhibition of HFIP-pretreated amyloid beta (1 to 42) (unknown origin) self-induced aggregation at 20 uM incubated for 46 to 48 hrs by thioflavin-T fluorescence assay relative to control.
In data set [2] the target is Acetylcholinesterase (Electrophorus electricus, UniProt O42275). Briefly: Inhibition of electric eel AChE using acetylthiocholine iodide as substrate pretreated for 6 mins followed by substrate addition measured up to 180 sec by Ellman's method.
For data set [3], the target named is Acetylcholinesterase (Homo sapiens, UniProt P22303). Put plainly: Inhibition of human erythrocyte AChE using acetylthiocholine iodide as substrate pretreated for 6 mins followed by substrate addition measured up to 180 sec by Ellman's method.
The nature of data set [4]: Selectivity index, ratio of IC50 for equine serum BuChE to IC50 for Electric eel AChE.
Data set [5] in a line: Antioxidant activity assessed as trolox equivalents of DPPH radical scavenging activity at 25 uM after 30 mins by UV-vis spectrophotometry. In kind it is functional.
Data set [6] deals with Acetylcholinesterase (Electrophorus electricus) (UniProt O42275). Briefly: Mixed-type inhibition of electric eel AChE at 1.25 to 5 nM using varying levels of acetylthiocholine iodide substrate by Lineweaver-Burk plot analysis.
Data set [7] concerns PC-12. Put plainly: Cytotoxicity against rat PC12 cells assessed as effect on cell viability at 6 to 100 uM after 24 hrs by MTT assay. Particulars: pc-12, 24 h. Type of data set: cell-based. (Tetrazolium dyes change colour on reduction, which living cells bring about.)
Data set [8] has as its system PC-12. Briefly: Neuroprotective activity against H2O2-induced oxidative damage in rat PC12 cells assessed as cell viability at 12.5 uM after 24 hrs by MTT assay relative to control. In kind it is functional. Particulars: PC-12, 24 h, read-out: Activity.
The subject of data set [9] is PC-12. Put plainly: Neuroprotective activity against amyloid beta (1 to 42 residues) induced cell death in rat PC12 cells assessed as cell viability at 1.56 uM preincubated for 2 hrs followed by amyloid beta (1 to 42 residues) addition measured after 24 hrs by MTT assay (reference value: 50.5%). In kind it is functional. Particulars: read-out: Activity.
The subject of data set [10] is PC-12. Put plainly: Neuroprotective activity against amyloid beta (1 to 42 residues) induced cell death in rat PC12 cells assessed as cell viability at 3.12 uM preincubated for 2 hrs followed by amyloid beta (1 to 42 residues) addition measured after 24 hrs by MTT assay (reference value: 50.5%). Type of data set: functional. Particulars: read-out: Activity.
Data set [11] has as its system PC-12. Put plainly: Neuroprotective activity against amyloid beta (1 to 42 residues) induced cell death in rat PC12 cells assessed as cell viability at 6.25 uM preincubated for 2 hrs followed by amyloid beta (1 to 42 residues) addition measured after 24 hrs by MTT assay (reference value: 50.5%). Type of data set: functional. Particulars: read-out: Activity.
Data set [12] has as its system PC-12. Put plainly: Neuroprotective activity against amyloid beta (1 to 42 residues) induced cell death in rat PC12 cells assessed as cell viability at 12.5 uM preincubated for 2 hrs followed by amyloid beta (1 to 42 residues) addition measured after 24 hrs by MTT assay (reference value: 50.5%). Type of data set: functional. The conditions noted are these: read-out: Activity.

Data set [13] deals with Mus musculus. Briefly: Toxicity in Kunming mouse assessed as body weight loss up to 2000 mg/kg, po measured up to 14 days post dose. Type of data set: organism-based. Particulars: in vivo, 336 h.
Data set [14] concerns Mus musculus. Put plainly: Toxicity in Kunming mouse assessed as effect on water consumption up to 2000 mg/kg, po measured up to 14 days post dose. Particulars: in vivo, 336 h. Type of data set: organism-based.
In data set [15] the test system is Mus musculus. Put plainly: Toxicity in Kunming mouse assessed as effect on food consumption up to 2000 mg/kg, po measured up to 14 days post dose. In kind it is organism-based. Particulars: in vivo, 336 h.
Data set [16] has as its system Mus musculus. Put plainly: Toxicity in Kunming mouse assessed as mortality up to 2000 mg/kg, po measured up to 14 days post dose. Type of data set: organism-based. The conditions noted are these: in vivo, 336 h.
The target of data set [17] is Amyloid-beta precursor protein (Homo sapiens) (UniProt P05067). Briefly: Inhibition of amyloid beta (1 to 42) (unknown origin) self-induced aggregation assessed as reduction in amyloid beta fibrils by transmission electron microscopic analysis.
Data set [18] has as its system PC-12. Put plainly: Neuroprotective activity against H2O2-induced oxidative damage in rat PC12 cells assessed as increase in cell viability at 6.25 uM after 24 hrs by MTT assay. In kind it is functional, cell-based.
The next data set is described as follows: physchem. Particulars: PAMPA. For orientation: PAMPA measures passive passage across an artificial lipid membrane.
In another data set the target is Cholinesterase (Equus caballus, UniProt P81908). Briefly: Inhibition of equine serum BuChE using s-butyrylthiocholine iodide as substrate preincubated for 6 mins followed by substrate addition measured up to 180 sec by Ellman's method. In general terms: DTNB colorimetry detects thiols as they appear.

Calls of active or inactive are those of the source. No cut-off for these calls is given here.

Sequence of Amyloid-beta precursor protein (Homo sapiens) (P05067 whole entry): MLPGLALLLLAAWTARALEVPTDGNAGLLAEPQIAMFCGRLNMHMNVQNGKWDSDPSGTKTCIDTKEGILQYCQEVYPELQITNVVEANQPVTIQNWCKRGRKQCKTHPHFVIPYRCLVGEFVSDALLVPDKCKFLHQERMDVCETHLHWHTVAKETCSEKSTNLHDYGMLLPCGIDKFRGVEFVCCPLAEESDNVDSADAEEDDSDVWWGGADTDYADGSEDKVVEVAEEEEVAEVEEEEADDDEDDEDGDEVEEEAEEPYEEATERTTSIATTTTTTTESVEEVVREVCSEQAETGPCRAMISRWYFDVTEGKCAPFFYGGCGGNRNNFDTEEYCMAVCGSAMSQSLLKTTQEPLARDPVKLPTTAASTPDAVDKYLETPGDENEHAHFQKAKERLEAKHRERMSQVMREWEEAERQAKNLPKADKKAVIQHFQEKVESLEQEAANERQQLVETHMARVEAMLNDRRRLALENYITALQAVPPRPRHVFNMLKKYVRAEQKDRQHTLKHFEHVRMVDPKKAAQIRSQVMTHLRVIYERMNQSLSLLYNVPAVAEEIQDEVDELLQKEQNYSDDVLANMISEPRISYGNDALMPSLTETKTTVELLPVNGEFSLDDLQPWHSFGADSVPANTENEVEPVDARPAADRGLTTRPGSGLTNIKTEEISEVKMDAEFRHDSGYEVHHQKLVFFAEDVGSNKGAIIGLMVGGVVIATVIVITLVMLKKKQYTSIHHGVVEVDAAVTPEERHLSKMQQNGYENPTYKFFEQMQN
Sequence of Acetylcholinesterase (Homo sapiens, UniProt P22303) (P22303 whole entry): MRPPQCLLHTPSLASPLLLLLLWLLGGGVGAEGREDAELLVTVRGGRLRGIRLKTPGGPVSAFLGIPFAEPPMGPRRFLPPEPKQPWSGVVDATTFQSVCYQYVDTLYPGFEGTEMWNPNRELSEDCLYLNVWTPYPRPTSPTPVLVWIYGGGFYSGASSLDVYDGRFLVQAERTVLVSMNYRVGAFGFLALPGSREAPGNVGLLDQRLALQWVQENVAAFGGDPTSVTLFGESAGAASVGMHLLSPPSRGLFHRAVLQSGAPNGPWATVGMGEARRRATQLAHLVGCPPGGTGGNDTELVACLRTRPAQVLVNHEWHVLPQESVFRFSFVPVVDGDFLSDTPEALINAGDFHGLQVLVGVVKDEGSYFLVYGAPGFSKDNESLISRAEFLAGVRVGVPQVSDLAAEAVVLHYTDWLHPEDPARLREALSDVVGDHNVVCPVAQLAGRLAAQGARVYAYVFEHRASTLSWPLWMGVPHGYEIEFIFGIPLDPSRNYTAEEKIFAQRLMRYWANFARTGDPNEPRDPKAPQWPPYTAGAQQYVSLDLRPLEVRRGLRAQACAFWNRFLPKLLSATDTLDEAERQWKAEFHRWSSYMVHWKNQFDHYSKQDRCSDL
Sequence of Acetylcholinesterase (Electrophorus electricus, UniProt O42275) (O42275 whole entry): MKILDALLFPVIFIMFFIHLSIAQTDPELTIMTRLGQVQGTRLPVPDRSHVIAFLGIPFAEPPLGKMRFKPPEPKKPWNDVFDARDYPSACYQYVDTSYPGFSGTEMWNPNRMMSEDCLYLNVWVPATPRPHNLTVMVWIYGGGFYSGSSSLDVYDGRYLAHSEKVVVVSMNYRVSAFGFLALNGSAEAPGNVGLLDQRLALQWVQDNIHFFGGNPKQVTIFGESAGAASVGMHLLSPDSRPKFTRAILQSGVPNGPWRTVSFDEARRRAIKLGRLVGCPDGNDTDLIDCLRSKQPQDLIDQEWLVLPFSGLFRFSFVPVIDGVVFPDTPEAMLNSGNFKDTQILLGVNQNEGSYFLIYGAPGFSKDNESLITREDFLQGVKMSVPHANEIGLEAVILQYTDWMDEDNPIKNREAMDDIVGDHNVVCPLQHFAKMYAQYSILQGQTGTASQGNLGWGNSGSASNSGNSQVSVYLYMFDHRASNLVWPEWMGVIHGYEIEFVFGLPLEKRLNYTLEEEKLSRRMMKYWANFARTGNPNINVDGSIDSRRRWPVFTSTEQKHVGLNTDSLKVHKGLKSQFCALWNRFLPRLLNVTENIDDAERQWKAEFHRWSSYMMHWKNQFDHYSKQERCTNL
Sequence of Cholinesterase (P81908 whole entry): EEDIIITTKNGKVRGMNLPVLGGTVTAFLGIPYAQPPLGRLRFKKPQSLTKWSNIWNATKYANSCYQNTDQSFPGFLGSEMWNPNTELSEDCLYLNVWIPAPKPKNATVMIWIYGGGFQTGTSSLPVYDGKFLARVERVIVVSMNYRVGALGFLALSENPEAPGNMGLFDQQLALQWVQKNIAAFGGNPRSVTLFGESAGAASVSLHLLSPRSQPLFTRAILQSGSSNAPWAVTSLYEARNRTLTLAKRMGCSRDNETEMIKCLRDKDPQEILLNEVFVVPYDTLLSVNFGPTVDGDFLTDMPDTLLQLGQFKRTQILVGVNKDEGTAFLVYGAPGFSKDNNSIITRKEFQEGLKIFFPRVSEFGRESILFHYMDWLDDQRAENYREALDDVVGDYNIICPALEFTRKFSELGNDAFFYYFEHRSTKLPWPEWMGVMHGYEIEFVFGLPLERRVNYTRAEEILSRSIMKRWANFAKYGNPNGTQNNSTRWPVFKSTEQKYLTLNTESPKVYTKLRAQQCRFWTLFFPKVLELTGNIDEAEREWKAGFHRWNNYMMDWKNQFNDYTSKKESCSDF
Sequence of Acetylcholinesterase (Electrophorus electricus) (O42275 24-633 limits assumed): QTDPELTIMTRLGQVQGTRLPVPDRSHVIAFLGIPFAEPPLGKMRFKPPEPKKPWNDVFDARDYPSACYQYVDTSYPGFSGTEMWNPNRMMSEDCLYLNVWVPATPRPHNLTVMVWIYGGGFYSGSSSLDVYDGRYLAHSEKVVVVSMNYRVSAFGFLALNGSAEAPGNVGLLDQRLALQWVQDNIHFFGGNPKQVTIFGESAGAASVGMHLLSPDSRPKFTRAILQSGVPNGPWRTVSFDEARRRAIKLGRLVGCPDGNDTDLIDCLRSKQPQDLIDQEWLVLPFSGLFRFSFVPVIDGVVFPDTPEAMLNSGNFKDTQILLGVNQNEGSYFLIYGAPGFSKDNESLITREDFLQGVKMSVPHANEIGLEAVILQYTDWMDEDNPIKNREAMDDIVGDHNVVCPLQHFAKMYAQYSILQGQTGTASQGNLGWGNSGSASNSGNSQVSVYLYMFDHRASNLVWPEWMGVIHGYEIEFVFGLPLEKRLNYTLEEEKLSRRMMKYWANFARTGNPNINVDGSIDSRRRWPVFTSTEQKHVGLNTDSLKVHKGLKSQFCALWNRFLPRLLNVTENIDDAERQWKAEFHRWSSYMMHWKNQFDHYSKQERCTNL
Description for physchem: Permeability of the compound at 200 uL after 16 hrs by PAMPA-BBB assay

Broadly, the inhibition is the drop in the measured response relative to a control, in per cent. Broadly, the IC50 is the concentration that inhibits the measured activity by half. For `COc1cc2c(cc1OC)C(=O)/C(=C/c1cc[n+](Cc3ccc(C)cc3)cc1)C2`, the inhibition in [1] stood at 49.9%. Also, the half-inhibitory concentration (IC50) on Acetylcholinesterase [2] is 25.6 nM; at Acetylcholinesterase [3], 18.6 nM. In addition, the Ratio IC50 in data set [4] is over 391. In [5], the Activity stood at 0.39 equiv.
Taken in the same sequence, the figures for `COc1cc2c(cc1OC)C(=O)/C(=C/c1cc[n+](Cc3ccccc3)cc1)C2` were 45.6%, 2.9 nM, 3.4 nM, over 3450 and 0.51 equiv.
`COc1cc2c(cc1OC)C(=O)/C(=C/c1cc[n+](Cc3ccc(Br)cc3)cc1)C2`: the inhibition in [1] was 50.2%. Besides, the IC50 on Acetylcholinesterase [2] is 77.3 nM; at Acetylcholinesterase [3] it was 69.7 nM. The Ratio IC50 in [4] was over 129. For the same compound, the Activity in data set [5] amounted to 0.38 equiv.
Broadly, the Papp is a coefficient for how fast a substance crosses the barrier. On to `COc1cc2c(cc1OC)C(=O)/C(=C/c1cc[n+](Cc3ccccc3F)cc1)C2.[Br-]`, for which the inhibition in data set [1] was determined as 53.7%. The half-maximal inhibitory concentration (IC50) on Acetylcholinesterase [3] worked out at 0.8 nM. Besides, the inhibition entry in data set [6] and in data set [17] was “Active” each time. In addition, the Activity in data set [5] was 0.54 equiv; in the data set with PC-12 [7], “Non-Toxic”; with Mus musculus [13], “Non-Toxic”; with Mus musculus [14] it was “Non-Toxic”; with Mus musculus [15] it was “Non-Toxic”; in the data set on Mus musculus [16], “Non-Toxic”. Besides, the viability at 12.5 µM worked out at 73.2% with PC-12 [8] and 76.3% with PC-12 [12]. Further, the viability at 1.56 µM in the data set on PC-12 [9] is 53.7%. Also, the viability at 3.12 µM with PC-12 [10] was found to be 66.5%. In the data set on PC-12 [11], the viability at 6.25 µM worked out at 72.3%. In addition, in the data set with PC-12 [18], the result was Active. The apparent permeability (Papp) at 16 h in the data set “physchem” amounted to 4.97 ×10⁻⁶ cm/s.
For the compound `COc1cc2c(cc1OC)C(=O)/C(=C/c1cc[n+](Cc3ccccc3C)cc1)C2`, the inhibition in [1] amounted to 38.7%. The concentration for half-maximal inhibition (IC50) was 5.1 nM at Acetylcholinesterase [2] and 5.8 nM on Acetylcholinesterase [3]. The Ratio IC50 in [4] is over 1960. In addition, in data set [5], the Activity came to 0.41 equiv.
Taken in the same sequence, the figures for `COc1cc2c(cc1OC)C(=O)/C(=C/c1cc[n+](Cc3cccc(C)c3)cc1)C2` were 42.6%, 4.2 nM, 4 nM, over 2380 and 0.47 equiv.
With `COc1cc2c(cc1OC)C(=O)/C(=C/c1cc[n+](Cc3ccccc3Br)cc1)C2`, in [1], the inhibition came to 56.7%. Further, the half-maximal inhibitory concentration (IC50) on Acetylcholinesterase [2] came out at 2.9 nM; at Acetylcholinesterase [3], 3.8 nM. Also, the Ratio IC50 in data set [4] was over 3450. For the same compound, the Activity in data set [5] came out at 0.37 equiv.
In “physchem”, `C[C@]12CC[C@@H]3c4ccc(O)cc4CC[C@H]3[C@@H]1CC[C@@H]2O` [ESTRADIOL] showed a Papp at 16 h of 11.3 ×10⁻⁶ cm/s.
`COc1cc2c(cc1OC)C(=O)C(CC1CCN(Cc3ccccc3)CC1)C2` (stereo not given): the Activity in [5] was 0.63 equiv.
Regarding `COc1cc2c(cc1OC)C(=O)/C(=C/c1cc[n+](Cc3ccc(F)cc3)cc1)C2`, the inhibition in [1] was 47.6%. Also, the IC50 on Acetylcholinesterase [2] amounted to 4.6 nM; on Acetylcholinesterase [3], 4.1 nM; against Cholinesterase it was 5400 nM. The Ratio IC50 in data set [4] was determined as 1170. Moreover, the Activity in data set [5] was determined as 0.51 equiv.
Regarding `COc1cc2c(cc1OC)C(=O)/C(=C/c1cc[n+](Cc3cccc(F)c3)cc1)C2`, in data set [1], the inhibition stood at 43.5%. In addition, the IC50 at Acetylcholinesterase [2] was 3.4 nM; on Acetylcholinesterase [3], 2.9 nM. The Ratio IC50 in [4] is over 2940. For the same compound, the Activity in data set [5] turned out to be 0.47 equiv.
The like results for `COc1cc2c(cc1OC)C(=O)/C(=C/c1cc[n+](Cc3cccc(Br)c3)cc1)C2` were, in that order, 53.4%, 4.4 nM, 5.2 nM, over 2270 and 0.32 equiv.
The like results for `COc1cc2c(cc1OC)C(=O)/C(=C/c1cc[n+](Cc3ccc([N+](=O)[O-])cc3)cc1)C2` were, in that order, 47.2%, 74.6 nM, 59.5 nM, over 130 and 0.49 equiv.
The like results for `COc1cc2c(cc1OC)C(=O)/C(=C/c1cc[n+](Cc3cccc([N+](=O)[O-])c3)cc1)C2` were, in that order, 50.8%, 5.9 nM, 3.6 nM, over 1690 and 0.33 equiv.
